In ChEMBL document CHEMBL5244230, “Artemisinin-derived hybrids and their anticancer activity” (Eur J Med Chem, 2020):

Legend:
[1] = system: MCF7; assay: Anticancer activity against human MCF7 cells; format: functional, cell-based
[2] = system: HT-29; assay: Antiproliferative activity against human HT-29 cells assessed as reduction in cell viability; format: functional, cell-based
[3] = system: MDA-MB-231; assay: Antiproliferative activity against human MDA-MB-231 cells; format: functional, cell-based; details: Homo sapiens, MDA-MB-231
[4] = system: HCT-116; assay: Antiproliferative activity against human HCT-116 cells; format: functional, cell-based
[5] = system: PC-3; assay: Antiproliferative activity against human PC-3 cells; format: functional, cell-based
[6] = Antiproliferative activity against human U-87 MG cells; format: functional, cell-based, U-87MG ATCC
[7] = system: A549; assay: Antiproliferative activity against human A549 cells; format: functional, cell-based
[8] = system: NCI-H460; assay: Antiproliferative activity against human NCI-H460 cells; format: functional, cell-based
[9] = system: MDA-MB-231; assay: Antiproliferative activity against human MDA-MB-231 cells assessed as reduction in cell viability; format: functional, cell-based
[10] = system: HCT-116; assay: Antiproliferative activity against human HCT-116 cells assessed as reduction in cell viability; format: functional, cell-based; details: Homo sapiens, HCT-116
[11] = system: DLD-1; assay: Cytotoxicity against human DLD-1 cells assessed as cell growth inhibition measured after 48 hrs by MTT assay; format: functional
[12] = Cytotoxicity against human U87 cells assessed as cell growth inhibition measured after 48 hrs by MTT assay; format: functional, U-87MG ATCC; details: U-87 MG
[13] = system: HeLa; assay: Cytotoxicity against human HeLa cells assessed as cell growth inhibition measured after 48 hrs by MTT assay; format: functional
[14] = system: SiHa; assay: Cytotoxicity against human SiHa cells assessed as cell growth inhibition measured after 48 hrs by MTT assay; format: functional
[15] = system: A 172; assay: Cytotoxicity against human A-172 cells assessed as cell growth inhibition measured after 48 hrs by MTT assay; format: functional
[16] = system: B16; assay: Cytotoxicity against mouse B16 cells assessed as cell growth inhibition measured after 48 hrs by MTT assay; format: functional

COc1cc([C@@H]2c3cc4c(cc3[C@@H](O[C@@H]3O[C@@H]5CO[C@@H](C)O[C@H]5[C@H](O)[C@H]3O)[C@H]3COC(=O)[C@H]23)OCO4)cc(OC)c1O [ETOPOSIDE]
830 nM: IC50 [1]

C[C@H]1[C@H](OCCNC(=O)c2ccc(COc3ccc(/C=C/S(=O)(=O)Nc4ccccc4)cc3)cc2)O[C@@H]2O[C@@]3(C)CC[C@H]4[C@H](C)CC[C@@H]1[C@@]24OO3
90 nM: IC50 [2] | IC50 [3]

CC1=C(CCCOC(=O)C[C@H]2O[C@@H]3O[C@@]4(C)CC[C@H]5[C@H](C)CC[C@@H]([C@H]2C)[C@@]35OO4)C(=O)C(C(C)C)=CC1=O
> 100000 nM: IC50 [4] | IC50 [5]

C[C@H]1[C@H](OCCNC(=O)c2ccc(COc3ccc(/C=C/S(=O)(=O)Nc4ccc(OC(F)(F)F)cc4)cc3)cc2)O[C@@H]2O[C@@]3(C)CC[C@H]4[C@H](C)CC[C@@H]1[C@@]24OO3
90 nM: IC50 [2] | IC50 [3] | IC50 [6]

C[C@H]1[C@H](OCCOc2cccc(/C=C/S(=O)(=O)Nc3ccc(OC(F)(F)F)cc3)c2)O[C@@H]2O[C@@]3(C)CC[C@H]4[C@H](C)CC[C@@H]1[C@@]24OO3
50 nM: IC50 [2] | IC50 [7] | IC50 [3] | IC50 [6] | IC50 [8]

CCOC(=O)c1cc2ccc(OCCCn3cc(CO[C@H]4O[C@@H]5O[C@@]6(C)CC[C@H]7[C@H](C)CC[C@@H]([C@H]4C)[C@@]57OO6)nn3)cc2oc1=O
430 nM: IC50 [9] | IC50 [2]

C[C@H]1[C@@H](OCc2cn(CCOc3ccc4c(C(F)(F)F)cc(=O)oc4c3)nn2)O[C@@H]2O[C@@]3(C)CC[C@H]4[C@H](C)CC[C@@H]1[C@@]24OO3
430 nM: IC50 [10] | IC50 [9] | IC50 [2]

CCOC(=O)c1cc2ccc(OCCn3cc(CO[C@H]4O[C@@H]5O[C@@]6(C)CC[C@H]7[C@H](C)CC[C@@H]([C@H]4C)[C@@]57OO6)nn3)cc2oc1=O
430 nM: IC50 [9] | IC50 [2]

Cc1c(Cl)c(=O)oc2cc(OCCCn3cc(CO[C@H]4O[C@@H]5O[C@@]6(C)CC[C@H]7[C@H](C)CC[C@@H]([C@H]4C)[C@@]57OO6)nn3)ccc12
430 nM: IC50 [9] | IC50 [2]

C[C@H]1[C@H](OCCOc2cccc(/C=C/S(=O)(=O)Nc3cccc(Cl)c3)c2)O[C@@H]2O[C@@]3(C)CC[C@H]4[C@H](C)CC[C@@H]1[C@@]24OO3
50 nM: IC50 [2] | IC50 [7] | IC50 [3] | IC50 [6] | IC50 [8]

CC1=C(CCCCO[C@H]2O[C@@H]3O[C@@]4(C)CC[C@H]5[C@H](C)CC[C@@H]([C@H]2C)[C@@]35OO4)C(=O)C(C(C)C)=CC1=O
> 100000 nM: IC50 [4] | IC50 [5]

C[C@H]1[C@H](OCCOc2cccc(/C=C/S(=O)(=O)Nc3c(Cl)cccc3Cl)c2)O[C@@H]2O[C@@]3(C)CC[C@H]4[C@H](C)CC[C@@H]1[C@@]24OO3
50 nM: IC50 [2] | IC50 [7] | IC50 [3] | IC50 [6] | IC50 [8]

C[C@H]1[C@@H](OCc2cn(CCCOc3ccc4c(C(F)(F)F)cc(=O)oc4c3)nn2)O[C@@H]2O[C@@]3(C)CC[C@H]4[C@H](C)CC[C@@H]1[C@@]24OO3
430 nM: IC50 [10] | IC50 [9] | IC50 [2]

CC1=C(CCCCOC(=O)CCC(=O)O[C@@H]2O[C@@H]3O[C@@]4(C)CC[C@H]5[C@H](C)CC[C@@H]([C@H]2C)[C@@]35OO4)C(=O)C(C(C)C)=CC1=O
> 100000 nM: IC50 [4] | IC50 [5]

Cc1c(C)c2ccc(OCCn3cc(CO[C@H]4O[C@@H]5O[C@@]6(C)CC[C@H]7[C@H](C)CC[C@@H]([C@H]4C)[C@@]57OO6)nn3)cc2oc1=O
430 nM: IC50 [10] | IC50 [9] | IC50 [2]

C[C@H]1[C@H](OCCNC(=O)c2ccc(COc3ccc(/C=C/S(=O)(=O)Nc4ccccc4Cl)cc3)cc2)O[C@@H]2O[C@@]3(C)CC[C@H]4[C@H](C)CC[C@@H]1[C@@]24OO3
90 nM: IC50 [2] | IC50 [7] | IC50 [3]

C[C@H]1[C@H](OCCNC(=O)c2ccc(COc3ccc(/C=C/S(=O)(=O)Nc4c(Cl)cccc4Cl)cc3)cc2)O[C@@H]2O[C@@]3(C)CC[C@H]4[C@H](C)CC[C@@H]1[C@@]24OO3
90 nM: IC50 [2] | IC50 [7] | IC50 [3]

Cc1ccccc1NS(=O)(=O)/C=C/c1ccc(OCc2ccc(C(=O)NCCO[C@@H]3O[C@@H]4O[C@@]5(C)CC[C@H]6[C@H](C)CC[C@@H]([C@H]3C)[C@@]46OO5)cc2)cc1
90 nM: IC50 [2] | IC50 [3]

CC1=C(CCCOC(=O)CCC(=O)O[C@@H]2O[C@@H]3O[C@@]4(C)CC[C@H]5[C@H](C)CC[C@@H]([C@H]2C)[C@@]35OO4)C(=O)C(C(C)C)=CC1=O
> 100000 nM: IC50 [4] | IC50 [5]

C[C@H]1[C@H](OCCNC(=O)c2ccc(COc3ccc(/C=C/S(=O)(=O)Nc4ccc(Cl)cc4)cc3)cc2)O[C@@H]2O[C@@]3(C)CC[C@H]4[C@H](C)CC[C@@H]1[C@@]24OO3
90 nM: IC50 [2] | IC50 [3] | IC50 [6] | IC50 [8]

C[C@H]1[C@H](OCCNC(=O)c2ccc(COc3ccc(/C=C/S(=O)(=O)Nc4cccc(Cl)c4)cc3)cc2)O[C@@H]2O[C@@]3(C)CC[C@H]4[C@H](C)CC[C@@H]1[C@@]24OO3
90 nM: IC50 [2] | IC50 [7] | IC50 [3] | IC50 [8]

C[C@H]1[C@@H](CC(=O)O[C@@H]2C[C@@H](OC(=O)C[C@H]3O[C@@H]4O[C@@]5(C)CC[C@H]6[C@H](C)CC[C@@H]([C@H]3C)[C@@]46OO5)[C@H](C)O[C@H]2O[C@H](C)CCCCC2OCOO2)O[C@@H]2O[C@@]3(C)CC[C@H]4[C@H](C)CC[C@@H]1[C@@]24OO3 (stereo not given in full)
5500 nM: IC50 [9] | IC50 [1] | IC50 [7]

CC1=C(CCCO[C@H]2O[C@@H]3O[C@@]4(C)CC[C@H]5[C@H](C)CC[C@@H]([C@H]2C)[C@@]35OO4)C(=O)C(C(C)C)=CC1=O
> 100000 nM: IC50 [4] | IC50 [5]

Cc1cc(=O)oc2cc(OCCCn3cc(CO[C@H]4O[C@@H]5O[C@@]6(C)CC[C@H]7[C@H](C)CC[C@@H]([C@H]4C)[C@@]57OO6)nn3)ccc12
430 nM: IC50 [9] | IC50 [2]

CC1=C(CCCCOC(=O)C[C@H]2O[C@@H]3O[C@@]4(C)CC[C@H]5[C@H](C)CC[C@@H]([C@H]2C)[C@@]35OO4)C(=O)C(C(C)C)=CC1=O
> 100000 nM: IC50 [4] | IC50 [5]

CC1=C(CCOC(=O)CCC(=O)O[C@@H]2O[C@@H]3O[C@@]4(C)CC[C@H]5[C@H](C)CC[C@@H]([C@H]2C)[C@@]35OO4)C(=O)C(C(C)C)=CC1=O
2400 nM: IC50 [4] | IC50 [5]

C.C[C@H]1[C@@H](CC(=O)O[C@@H]2C[C@@H](OC(=O)C[C@H]3O[C@@H]4O[C@@]5(C)CC[C@H]6[C@H](C)CC[C@@H]([C@H]3C)[C@@]46OO5)[C@H](C)O[C@H]2O[C@H](C)CCCCC(=O)O)O[C@@H]2O[C@@]3(C)CC[C@H]4[C@H](C)CC[C@@H]1[C@@]24OO3
5500 nM: IC50 [9] | IC50 [1] | IC50 [7]

C[C@H]1[C@@H](OC(=O)CCC(=O)O)O[C@@H]2O[C@@]3(C)CC[C@H]4[C@H](C)CC[C@@H]1[C@@]24OO3
5300 nM: IC50 [4] | IC50 [5]

Cc1c(Cl)c(=O)oc2cc(OCCn3cc(CO[C@H]4O[C@@H]5O[C@@]6(C)CC[C@H]7[C@H](C)CC[C@@H]([C@H]4C)[C@@]57OO6)nn3)ccc12
430 nM: IC50 [10] | IC50 [9] | IC50 [2]

CC1=CC(=O)C(C(C)C)=CC1=O [THYMOQUINONE]
50100 nM: IC50 [4] | IC50 [5]

C[C@H]1[C@H](n2nncc2-c2ccccc2)O[C@@H]2O[C@@]3(C)CC[C@H]4[C@H](C)CC[C@@H]1[C@@]24OO3
40 nM: GI50 [11] | GI50 [12] | GI50 [13] | GI50 [14] | GI50 [15] | GI50 [16]

Cc1ccc(-c2cn([C@H]3O[C@@H]4O[C@@]5(C)CC[C@H]6[C@H](C)CC[C@@H]([C@@H]3C)[C@@]46OO5)nn2)cc1
30 nM: GI50 [11] | GI50 [12] | GI50 [13] | GI50 [14] | GI50 [15] | GI50 [16]

C[C@@H]1[C@@H](n2cc(-c3ccc(F)cc3)nn2)O[C@@H]2O[C@@]3(C)CC[C@H]4[C@H](C)CC[C@@H]1[C@@]24OO3
30 nM: GI50 [11] | GI50 [12] | GI50 [13] | GI50 [14] | GI50 [15] | GI50 [16]

Cc1c(C)c2ccc(OCCCn3cc(CO[C@H]4O[C@@H]5O[C@@]6(C)CC[C@H]7[C@H](C)CC[C@@H]([C@H]4C)[C@@]57OO6)nn3)cc2oc1=O
430 nM: IC50 [9] | IC50 [2]

COc1ccc(-c2cn([C@H]3O[C@@H]4O[C@@]5(C)CC[C@H]6[C@H](C)CC[C@@H]([C@@H]3C)[C@@]46OO5)nn2)cc1
30 nM: GI50 [11] | GI50 [12] | GI50 [13] | GI50 [14] | GI50 [15] | GI50 [16]

Cc1cc(=O)oc2cc(OCCn3cc(CO[C@H]4O[C@@H]5O[C@@]6(C)CC[C@H]7[C@H](C)CC[C@@H]([C@H]4C)[C@@]57OO6)nn3)ccc12
430 nM: IC50 [10] | IC50 [9] | IC50 [2]
